Reference: ChEMBL document CHEMBL5050844 (2019)

What was measured:
[1] = Induction of anti-CD3 antibodies-stimulated human T cell activation at 10 uM assessed fold increase in IFN-gamma secretion measured by ELISA assay; format: functional, T cell line
[2] = Induction of anti-CD3/CD28 antibodies-stimulated human CD4+ T cell activation at 1.11 uM assessed fold increase in cell proliferation measured by flow cytometry analysis; format: functional, T cell line
[3] = Induction of anti-CD3/CD28 antibodies-stimulated human CD8+ T cell activation at 1.11 uM assessed fold increase in CD69 expression measured by flow cytometry analysis; format: functional, T cell line
[4] = Induction of anti-CD3/CD28 antibodies-stimulated human T cell activation at 10 uM assessed fold increase in TNF-alpha secretion measured by ELISA assay; format: functional, T cell line
[5] = Induction of activation of human CD56+ CD3- NK cells co-cultured with human K562 cells in 1:1 ratio and assessed as increase in TNF-alpha secretion at 10 uM measured by ELISA assay; format: functional, Natural killer cell
[6] = Induction of anti-CD3 antibodies-stimulated human T cell activation at 8 uM assessed fold increase in IL-2 secretion measured by ELISA assay; format: functional, T cell line
[7] = Induction of anti-CD3 antibodies-stimulated human exhausted CD8+ T cell activation assessed fold increase in CTLA4 expression measured by flow cytometry analysis; format: functional, T cell line
B cell = assay: Induction of anti-IgM-stimulated human CD20+ B cell activation at 10 to 1000 uM assessed as increase in CD69 expression measured as mean fluorescence intensity AUC by flow cytometry analysis; format: functional, cell-based; conditions: dose 10-1000 µM
[8] = Induction of anti-CD3 antibodies-stimulated human T cell activation at 1.11 uM assessed fold increase in TNF-alpha secretion measured by ELISA assay; format: functional, T cell line
[9] = Induction of anti-CD3 antibodies-stimulated human CD8+ T cell activation at 1.11 uM assessed fold increase in CD69 expression measured by flow cytometry analysis; format: functional, T cell line
[10] = Induction of anti-CD3 antibodies-stimulated human CD8+ T cell activation at 10 uM assessed fold increase in cell proliferation measured by flow cytometry analysis; format: functional, T cell line
[11] = Induction of anti-CD3 antibodies-stimulated human T cell activation at 1 uM assessed fold increase in CD25 expression measured by ELISA assay; format: functional, T cell line
[12] = Induction of anti-CD3/CD28 antibodies-stimulated human CD4+ T cell activation at 10 uM assessed fold increase in CD69 expression measured by flow cytometry analysis; format: functional, T cell line
[13] = Induction of activation of human CD56+ CD3- NK cells co-cultured with human K562 cells in 1:1 ratio and assessed as increase in TNF-alpha secretion at 2.5 uM measured by ELISA assay; format: functional, Natural killer cell
[14] = Induction of anti-CD3 antibodies-stimulated human CD4+ T cell activation at 10 uM assessed fold increase in CD69 expression measured by flow cytometry analysis; format: functional, T cell line
[15] = Induction of activation of human CD56+ CD3- NK cells co-cultured with human K562 cells in 1:1 ratio and assessed as increase in IFN-gamma secretion at 2.5 uM measured by ELISA assay; format: functional, Natural killer cell
[16] = Induction of anti-CD3 antibodies-stimulated human CD8+ T cell activation at 10 uM assessed fold increase in CD69 expression measured by flow cytometry analysis; format: functional, T cell line
[17] = Induction of anti-CD3/CD28 antibodies-stimulated human anergic T cell activation at 0.37 uM assessed fold increase in IFN-gamma secretion measured by ELISA assay; format: functional, T cell line
[18] = Induction of anti-CD3 antibodies-stimulated human T cell activation at 1.11 uM assessed fold increase in GM-CSF secretion measured by ELISA assay; format: functional, T cell line
[19] = Induction of activation of human CD56+ CD3- NK cells co-cultured with human K562 cells in 1:1 ratio and assessed as increase in IFN-gamma secretion at 10 uM measured by ELISA assay; format: functional, Natural killer cell
[20] = Induction of anti-CD3/CD28 antibodies-stimulated human CD4+ T cell activation at 1.11 uM assessed fold increase in CD69 expression measured by flow cytometry analysis; format: functional, T cell line
[21] = Induction of anti-CD3/CD28 antibodies-stimulated human T cell activation at 1.11 uM assessed fold increase in IFN-gamma secretion measured by ELISA assay; format: functional, T cell line
[22] = Induction of allogenic human T cell activation at 10 uM assessed fold increase in cell proliferation; format: functional, T cell line
[23] = Induction of anti-CD3/CD28 antibodies-stimulated human CD8+ T cell activation at 10 uM assessed fold increase in cell proliferation measured by flow cytometry analysis; format: functional, T cell line
[24] = Induction of activation of human CD56+ CD3- NK cells co-cultured with human K562 cells in 1:1 ratio and assessed as increase in TNF-alpha secretion at 0.625 uM measured by ELISA assay; format: functional, Natural killer cell
[25] = Induction of anti-CD3/CD28 antibodies-stimulated human CD4+ T cell activation at 10 uM assessed fold increase in cell proliferation measured by flow cytometry analysis; format: functional, T cell line
[26] = Induction of anti-CD3/CD28 antibodies-stimulated human T cell activation at 10 uM assessed fold increase in IFN-gamma secretion measured by ELISA assay; format: functional, T cell line
[27] = Induction of anti-CD3/CD28 antibodies-stimulated human T cell activation at 0.3 uM assessed fold increase in CD25 expression measured by ELISA assay; format: functional, T cell line
[28] = Induction of anti-CD3/CD28 antibodies-stimulated human anergic T cell activation at 1.11 uM assessed fold increase in IFN-gamma secretion measured by ELISA assay; format: functional, T cell line
[29] = Induction of anti-CD3/CD28 antibodies-stimulated human T cell activation at 4 uM assessed fold increase in IL-2 secretion measured by ELISA assay; format: functional, T cell line
[30] = Induction of anti-CD3 antibodies-stimulated human T cell activation at 1 uM assessed fold increase in IL-2 secretion measured by ELISA assay; format: functional, T cell line
[31] = Induction of anti-CD3 antibodies-stimulated human T cell activation at 8 uM assessed fold increase in CD25 expression measured by ELISA assay; format: functional, T cell line
[32] = Induction of anti-CD3 antibodies-stimulated human CD4+ T cell activation at 1.11 uM assessed fold increase in CD69 expression measured by flow cytometry analysis; format: functional, T cell line
[33] = Induction of anti-CD3/CD28 antibodies-stimulated human anergic T cell activation at 10 uM assessed fold increase in IFN-gamma secretion measured by ELISA assay; format: functional, T cell line
[34] = Induction of anti-CD3 antibodies-stimulated human T cell activation at 10 uM assessed fold increase in GM-CSF secretion measured by ELISA assay; format: functional, T cell line
[35] = Induction of anti-CD3/CD28 antibodies-stimulated human CD8+ T cell activation at 1.11 uM assessed fold increase in cell proliferation measured by flow cytometry analysis; format: functional, T cell line
[36] = Induction of anti-CD3 antibodies-stimulated human exhausted T cell activation assessed fold increase in IL-2 secretion measured by ELISA assay; format: functional, T cell line
[37] = Induction of anti-CD3 antibodies-stimulated human T cell activation at 1.11 uM assessed fold increase in IFN-gamma secretion measured by ELISA assay; format: functional, T cell line

Row | SMILES | fold change (FC) [1] | fold change (FC) [2] | fold change (FC) [3] | fold change (FC) [4] | fold change (FC) [5] | fold change (FC) [6] | fold change (FC) [7] | AUC (B cell) | fold change (FC) [8] | fold change (FC) [9] | fold change (FC) [10] | fold change (FC) [11] | fold change (FC) [12] | fold change (FC) [13] | fold change (FC) [14] | fold change (FC) [15] | fold change (FC) [16] | fold change (FC) [17] | fold change (FC) [18] | fold change (FC) [19] | further results
1 | C[C@@H](c1cc2c(c(C(F)(F)F)c1)CN(c1cccc(C3(Cc4nncn4C)COC3)c1)C2=O)N1CC[C@H](F)C1 | >4 | >4 | 1.201 | >4 | 2.01 | >=0.201 | <=1.4 | > 1.51 | 1.51 | 1.401 | >4 | >=1.001 | 1.401 | 2.01 | >1.601 | 2.01 | 1.401 | <=2.5 | >4 | >=5 | fold change (FC) [20]: 1.401; fold change (FC) [21]: >4; fold change (FC) [22]: >3; fold change (FC) [23]: >4; fold change (FC) [24]: 2.01; fold change (FC) [25]: >4; fold change (FC) [26]: >4; fold change (FC) [27]: 1.31; fold change (FC) [28]: >4.01; fold change (FC) [29]: >=7.5; fold change (FC) [30]: >=0.201; fold change (FC) [31]: >=1.001; fold change (FC) [32]: >1.601; fold change (FC) [33]: >4.01; fold change (FC) [34]: >4; fold change (FC) [35]: >4; fold change (FC) [36]: <=2.5; fold change (FC) [37]: 3.01
2 | Cn1cnnc1[C@@H]1C[C@@H]1c1cccc(N2Cc3c(cccc3C(F)(F)F)C2=O)c1 | 2.01 | <=2 | <=1.2 | 2.01 | 1.01 | <=0.05 | <=1.4 | 0.5 | <=1.5 | <=1.2 | 3.01 | 0.601 | 1.201 | 1.01 | 1.201 | 1.01 | <=1.2 | <=2.5 | <=1.5 | 2.01 | fold change (FC) [20]: <=1.2; fold change (FC) [21]: <=2; fold change (FC) [22]: <=2; fold change (FC) [23]: 2.01; fold change (FC) [24]: 1.01; fold change (FC) [25]: >4; fold change (FC) [26]: 2.01; fold change (FC) [27]: >=1.76; fold change (FC) [28]: <=2.5; fold change (FC) [29]: 2.51; fold change (FC) [30]: <=0.05; fold change (FC) [31]: >=1.001; fold change (FC) [32]: <=1.2; fold change (FC) [33]: <=2.5; fold change (FC) [34]: 2.01; fold change (FC) [35]: <=2; fold change (FC) [36]: 2.51; fold change (FC) [37]: <=2
3 | Cn1cnnc1C(F)(F)[C@](C)(F)c1cccc(N2Cc3c(cc(C(=O)N4CC[C@H](O)C4)cc3C(F)(F)F)C2=O)c1 | 2.01 | 3.01 | <=1.2 | 2.01 | 1.01 | >=0.201 | <=1.4 | < 0.5 | 2.01 | <=1.2 | >4 | 0.801 | 1.401 | 1.01 | >1.601 | 1.01 | 1.201 | <=2.5 | <=1.5 | <=1 | fold change (FC) [20]: 1.201; fold change (FC) [21]: <=2; fold change (FC) [22]: <=2; fold change (FC) [23]: 3.01; fold change (FC) [24]: 1.01; fold change (FC) [25]: >4; fold change (FC) [26]: 2.01; fold change (FC) [27]: 1.01; fold change (FC) [28]: <=2.5; fold change (FC) [29]: >=7.5; fold change (FC) [30]: 0.101; fold change (FC) [31]: >=1.001; fold change (FC) [32]: 1.201; fold change (FC) [33]: >4.01; fold change (FC) [34]: 2.01; fold change (FC) [35]: <=2; fold change (FC) [36]: 2.51; fold change (FC) [37]: <=2
4 | Cn1cnnc1CC1(c2cccc(NC(=O)c3nc4c(C(F)(F)F)cccc4[nH]3)c2)COC1 | 2.01 | >4 | 1.201 | 2.01 | 2.01 | >=0.201 | >1.61 | 0.5 | 1.51 | 1.201 | >4 | 0.801 | >1.601 | 1.01 | >1.601 | 1.01 | 1.401 | <=2.5 | <=1.5 | 2.01 | fold change (FC) [20]: 1.401; fold change (FC) [21]: >4; fold change (FC) [22]: <=2; fold change (FC) [23]: 3.01; fold change (FC) [24]: 1.01; fold change (FC) [25]: >4; fold change (FC) [26]: 2.01; fold change (FC) [27]: 1.31; fold change (FC) [28]: 2.51; fold change (FC) [29]: >=7.5; fold change (FC) [30]: 0.101; fold change (FC) [31]: >=1.001; fold change (FC) [32]: >1.601; fold change (FC) [33]: >4.01; fold change (FC) [34]: 2.01; fold change (FC) [35]: 3.01; fold change (FC) [36]: >3.01; fold change (FC) [37]: <=2
